According to patent publication US20220241255A1, “COMBINATION CONTAINING SGC ACTIVATORS AND MINERALOCORTICOID RECEPTOR ANTAGONISTS” (Bayer Pharma Aktiengesellschaft, priority 2016, published 2022):

What was measured:
[1] = tested on: L-NAME-treated transgenic renin rat (TGR(mRen2)27); assay: Proteinuria (protein/creatinine quotient in urine) in L-NAME-treated renin transgenic rats; assay type: in vivo; settings: for reduction of proteinuria, measured as protein/creatinine quotient in urine: finerenone 10 mg/kg od, compound of the formula (X) 1 mg/kg bid, alone or combined, versus placebo; for Urinary protein/creatinine quotient, % change vs placebo: proteinuria in % reduction from placebo at the end of the study, mean ± SEM, groups and doses per Table 1
Text: (§1) 3.) L-NAME-treated transgenic renin rat (TGR(mRen2)27)
(§2) The transgenic renin rat ‘TGR(mRen2)27’ is a hypertensive rat line developed by Mullins and Ganten which overexpresses the Ren-2 gene of the mouse. Additional administration of the nitrogen monoxide synthase inhibitor L-NAME induces endothelial dysfunction which increases morbidity and mortality in this model. Unless subjected to life-long antihypertensive therapy, homozygous animals die of secondary complications such as heart and kidney failure or stroke.
(§3) Male TGR(mRen2)27 renin rats aged 10 to 20 weeks are randomized to different pharmacological treatment groups and a placebo group. In addition, the nitrogen monoxide synthase inhibitor L-NAME is administered via the drinking water in a concentration of 30 to 100 mg/l. During the entire experiment, drinking water and feed are available ad libitum to the animals. The substances are administered via the feed or daily by gavage for 4-10 weeks. Animals treated in the same way but receiving either only the solvent or the feed without test substance serve as placebo group. During the experiment, the systolic blood pressure is determined at regular intervals using a tail cuff, and proteinuria and urine electrolyte composition are determined by collecting the urine in metabolic cages. At the end of the experiment, haemodynamic parameters (blood pressure, heart rate, inotropism[dp/dt], relaxation time[tau], maximum left ventricular pressure, left ventricular end-diastolic pressure[LVEDP]) are measured, and the weights of heart, kidney and lung are determined, protein elimination and biomarkers (e.g. ANP, RIA Kit RK 005-24, Phoenix Pharmaceuticals, Inc., USA, cGMP, RIA Kit RE29075, IBL International GmbH, Hamburg, Germany, renin, angiotensin I, RIA Kit CA-1533, DiaSorin S.p.A., Italy, and aldosterone, P2714, DiaSorin S.p.A., Italy) and gene expression of biomarkers by RT/TaqMan PCR following RNA isolation from cardiac and renal tissue are determined.
(§4) Cardiac and cardiovascular disorders as well as renal and cardiorenal disorders are characterized by high patient morbidity and also high mortality. This morbidity and mortality, together with various risk factors such as hypertension, can be reproduced very accurately in the above-described animal model of the L-NAME-treated renin transgenic rat. Therefore, this animal model, for example, was used to investigate MR antagonists such as, for example, finerenone according to the compound of the formula (IV) and sGC activators such as, for example, the compound of the formula (X), and combinations of both: […]
Here, the quotient of protein excreted in the urine and creatinine excreted in the urine, the so-called protein/creatinine quotient, which can be used as a quantitative measure for the kidney damage, is determined.

[2] = tested on: L-NAME-treated transgenic renin rat (TGR(mRen2)27); assay: All-cause mortality / survival in L-NAME-treated renin transgenic rats; assay type: in vivo; settings: for Mortality: all-cause mortality during the study period, daily gavage, 15 animals per group, groups and doses per Table 1; for survival rate / animals died during the study period: finerenone 10 mg/kg od, compound of the formula (X) 1 mg/kg bid, alone or combined; for survival rate: over the study period, placebo survival 60%; for animals died during the study period: study terminated after 40% of placebo animals had died
Text: as §1, §2, §3, §4
For example, the MR antagonist finerenone, corresponding to the compound of the formula (IV), and the sGC activator, corresponding to the compound of the formula (X), were tested on their own and in combinations in TGR(mRen2)27 renin rats aged 10 to 20 weeks. In addition, the nitrogen monoxide synthase inhibitor L-NAME was administered via the drinking water in a concentration of 30 to 100 mg/l. During the entire experiment, drinking water and feed were available ad libitum to the animals. The substances were administered daily by gavage for 4-10 weeks. Animals treated in the same way but receiving only the solvent for the test substance served as placebo group. In the test series, in addition to placebo (group A), the MR antagonist finerenone (10 mg/kg od) (group B) and the sGC activator corresponding to the compound of the formula (X) (1 mg/kg bid) (group C) on their own and a combination of finerenone (10 mg/kg od)+compound of the formula (X) (1 mg/kg bid) (group D) were administered. In this study, 15 animals were used per group (A, B, C, D) (Table 1):
After 40% of the placebo animals had died—the study was generally terminated once 40-50% of the placebo-treated animals had died, which corresponds to a survival rate of 60-50%—the study was terminated and the survival rates of the individual treatment groups were compared to one another.

SMILES	reduction of proteinuria, measured as protein/creatinine quotient in urine [1] [%]	Urinary protein/creatinine quotient, % change vs placebo [1]	Mortality [2] [%]	survival rate [2] [%]	animals died during the study period [2] [%]
CCOc1ncc(C)c2c1[C@H](c1ccc(C#N)cc1OC)C(C(N)=O)=C(C)N2 [finerenone, (S)-4-(4-cyano-2-methoxyphenyl)-5-ethoxy-2,8-dimethyl-1,4-dihydro-1,6-naphthyridine-3-carboxamide]	58	−58 + 16%	20	80	20
C[C@H]([C@H](C(=O)Nc1cc([C@@H](CC(=O)O)C2CC2)ccc1Cl)c1ccc(Cl)cc1)C(F)(F)F [compound of the formula (X), (3S)-3-(4-chloro-3-{[(2S,3R)-2-(4-chlorophenyl)-4,4,4-trifluoro-3-methylbutanoyl]amino}phenyl)-3-cyclopropylpropanoic acid]	8	−8 + 20%	27	73	27
